Results published in ChEMBL document CHEMBL4400545 (Bioorg Med Chem, 2019).

Experiments:
[1] = molecular target: T1, Sodium- and chloride-dependent GABA transporter 1 (Rattus norvegicus, UniProt P23978); assay: Inhibition of GAT-1 in rat brain homogenate; format: tissue-based
[2] = molecular target: T2, Sodium- and chloride-dependent GABA transporter 1 (Mus musculus, UniProt P31648); assay: Inhibition of mouse GAT-1 expressed in HEK293 cells assessed as decrease in [3H]GABA uptake preincubated for 25 mins followed by [3H]GABA addition and measured after 4 mins by scintillation counting analysis; format: cell-based
[3] = molecular target: T2, Sodium- and chloride-dependent GABA transporter 1; assay: Binding affinity to mouse GAT-1 expressed in HEK293 cells after 4 hrs in presence of NO711 by LC-ESI-MS/ms analysis; format: cell-based
[4] = system: Sodium- and chloride-dependent GABA transporter 2 (Mus musculus); assay: Inhibition of mouse GAT-3 expressed in HEK293 cells assessed as remaining [3H]GABA uptake at 100 uM preincubated for 25 mins followed by [3H]GABA addition and measured after 4 mins by scintillation counting analysis
[5] = system: Sodium- and chloride-dependent betaine transporter (Mus musculus); assay: Inhibition of mouse GAT-2 expressed in HEK293 cells assessed as remaining [3H]GABA uptake at 100 uM preincubated for 25 mins followed by [3H]GABA addition and measured after 10 mins by scintillation counting analysis
[6] = molecular target: T3, GABA transporter 4 (Mus musculus) (UniProt P31650); assay: Inhibition of mouse GAT-4 expressed in HEK293 cells assessed as remaining [3H]GABA uptake at 100 uM preincubated for 25 mins followed by [3H]GABA addition and measured after 4 mins by scintillation counting analysis; format: cell-based
T3 sequence (whole entry): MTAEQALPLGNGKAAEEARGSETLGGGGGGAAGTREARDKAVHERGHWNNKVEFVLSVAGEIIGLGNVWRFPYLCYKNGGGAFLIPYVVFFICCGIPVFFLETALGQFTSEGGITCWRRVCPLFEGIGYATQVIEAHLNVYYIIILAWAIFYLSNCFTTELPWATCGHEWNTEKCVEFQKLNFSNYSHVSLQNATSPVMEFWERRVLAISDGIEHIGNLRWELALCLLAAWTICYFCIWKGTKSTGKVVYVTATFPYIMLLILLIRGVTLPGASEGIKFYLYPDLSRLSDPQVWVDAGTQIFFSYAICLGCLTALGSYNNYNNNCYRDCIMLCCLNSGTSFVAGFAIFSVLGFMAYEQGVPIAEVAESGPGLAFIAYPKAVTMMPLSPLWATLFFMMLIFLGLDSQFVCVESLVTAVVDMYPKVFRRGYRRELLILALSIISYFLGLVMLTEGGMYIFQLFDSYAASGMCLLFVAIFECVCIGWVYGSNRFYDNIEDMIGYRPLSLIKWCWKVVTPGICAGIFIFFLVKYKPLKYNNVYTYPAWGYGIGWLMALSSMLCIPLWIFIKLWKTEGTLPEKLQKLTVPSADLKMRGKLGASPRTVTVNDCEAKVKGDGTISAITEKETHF

GABA transporter 4 = molecular target: T4, GABA transporter 4 (Mus musculus, UniProt P31650); assay: Inhibition of mouse GAT-4 expressed in HEK293 cells assessed as decrease in [3H]GABA uptake preincubated for 25 mins followed by [3H]GABA addition and measured after 4 mins by scintillation counting analysis; format: cell-based
T4 sequence (P31650 whole entry): T3 sequence (whole entry)

[7] = molecular target: T1, Sodium- and chloride-dependent GABA transporter 1; assay: Inhibition of GAT-1 in rat brain homogenate assessed as decrease in [3H]GABA uptake preincubated for 8 mins followed by [3H]GABA addition and measured after 8 mins by scintillation counting analysis; format: tissue-based
[8] = molecular target: Sodium- and chloride-dependent GABA transporter 1 (Mus musculus) (UniProt P31648); assay: Inhibition of mouse GAT-1 assessed as percentage of remaining specific binding of NO711 at 1 uM after 4 hrs by LC-ESI-MS/ms analysis relative to control
[9] = molecular target: Sodium- and chloride-dependent GABA transporter 1 (Mus musculus) (UniProt P31648); assay: Inhibition of mouse GAT-1 assessed as percentage of remaining specific binding of NO711 at 100 nM after 4 hrs by LC-ESI-MS/ms analysis relative to control
[10] = molecular target: Sodium- and chloride-dependent GABA transporter 1 (Mus musculus) (UniProt P31648); assay: Inhibition of mouse GAT-1 assessed as percentage of remaining specific binding of NO711 at 40 uM after 4 hrs by LC-ESI-MS/ms analysis relative to control
[11] = molecular target: Sodium- and chloride-dependent GABA transporter 1 (Mus musculus) (UniProt P31648); assay: Inhibition of mouse GAT-1 assessed as percentage of remaining specific binding of NO711 at 4 uM after 4 hrs by LC-ESI-MS/ms analysis relative to control

O=C(O)[C@@H]1CCCN(CCO/N=C(\Cc2ccccc2F)c2ccccc2F)C1
IC50 [1]: 80 nM

O=C(O)C1=CCCN(CCO/N=C/c2ccccc2-c2ccc(Cl)cc2Cl)C1
IC50 [2]: 5.37 nM | Ki [3]: 5.13 nM

O=C(O)[C@@H]1CCCN(CCO/N=C/c2ccccc2-c2ccc(F)cc2Cl)C1
Activity [4]: 77.7% | IC50 [2]: 32.4 nM | Activity [5]: 50.1% | Activity [6]: 50.9% | Ki [3]: 2.82 nM

O=C(O)C1=CCCN(CCO/N=C/c2ccccc2-c2ccc(F)cc2F)C1
IC50 [2]: 56.2 nM | Ki [3]: 4.47 nM

O=C(O)[C@@H]1CCCN(CCO/N=C/c2ccccc2-c2ccc(F)cc2F)C1
Activity [4]: 75.5% | IC50 [2]: 102 nM | Activity [5]: 56.6% | Activity [6]: 62.5% | Ki [3]: 5.89 nM

O=C(O)[C@@H]1CCCN(CCO/N=C/c2ccccc2-c2ccc(Cl)cc2Cl)C1
IC50 [2]: 60.3 nM | IC50 (GABA transporter 4): 63100 nM | Ki [3]: 5.89 nM

O=C(O)C1=CCCN(CCON=C(c2ccccc2)c2ccccc2)C1
IC50 [7]: 40 nM

O=C(O)C1CCCN(CCO/N=C/c2ccccc2-c2ccc(Cl)cc2Cl)C1 (racemic)
IC50 [2]: 38.9 nM | Activity [8]: 5% | IC50 (GABA transporter 4): 70800 nM | Activity [9]: Below limit of detection | Ki [3]: 10.5 nM

O=C(O)C1CCCN(CCO/N=C/c2ccccc2-c2ccc(F)cc2F)C1 (racemic)
Activity [4]: 90.9% | IC50 [2]: 85.1 nM | Activity [8]: 17% | Activity [5]: 78.3% | Activity [6]: 62.5% | Activity [9]: 16% | Ki [3]: 13.8 nM

O=C(O)C1CCCN(CCO/N=C/c2cc(F)ccc2-c2ccc(Cl)cc2Cl)C1 (racemic)
IC50 [2]: 170 nM | Activity [8]: 16% | IC50 (GABA transporter 4): 32400 nM | Activity [9]: Below limit of detection | Ki [3]: 17 nM

O=C(O)C1CCCN(CCO/N=C/c2sccc2-c2ccc(Cl)cc2Cl)C1 (racemic)
IC50 [2]: 28.2 nM | Activity [8]: 12% | IC50 (GABA transporter 4): 72400 nM | Activity [9]: Below limit of detection | Ki [3]: 11.7 nM

O=C(O)C1CCCN(CCO/N=C/c2ccccc2-c2ccc(F)cc2Cl)C1 (racemic)
Activity [4]: 62.6% | IC50 [2]: 66.1 nM | Activity [8]: 11% | Activity [5]: 61.6% | Activity [6]: 80.9% | Activity [9]: Below limit of detection | Ki [3]: 10 nM

CC(/C=N/OCCN1CCCC(C(=O)O)C1)(CCC#N)c1ccccc1 (racemic)
Activity [8]: 7% | Activity [9]: 48%

Cc1onc(-c2ccc(Cl)cc2)c1/C=N/OCCN1CCCC(C(=O)O)C1 (racemic)
Activity [8]: 7% | Activity [9]: 48%

NOCCN1CCCC(C(=O)O)C1 (racemic)
Activity [10]: 92% | Activity [11]: 99%

O=C(O)C1CCCN(CCO/N=C/C(c2ccccc2)c2ccccc2)C1 (racemic)
Activity [8]: 41% | Activity [9]: 20%

O=C(O)C1CCCN(CCO/N=C/c2c[nH]nc2-c2ccc(F)cc2)C1 (racemic)
Activity [8]: 7% | Activity [9]: 48%

O=C(O)C1CCCN(CCO/N=C/c2cc(F)ccc2-c2ccccc2)C1 (racemic)
Activity [8]: 58% | Activity [9]: 16%

O=C(O)C1CCCN(CCO/N=C/c2cc(F)ccc2-c2ccccc2Cl)C1 (racemic)
Activity [8]: 41% | Activity [9]: 16%

O=C(O)C1CCCN(CCO/N=C/c2cc(F)ccc2-c2ccccc2F)C1 (racemic)
Activity [8]: 42% | Activity [9]: 16%

O=C(O)C1CCCN(CCO/N=C/c2ccc(-c3ccc(C(F)(F)F)cc3Cl)o2)C1 (racemic)
Activity [8]: 83% | Activity [9]: Below limit of detection

O=C(O)C1CCCN(CCO/N=C/c2ccc(-c3ccccc3)cc2)C1 (racemic)
Activity [8]: 80% | Activity [9]: 20%

O=C(O)C1CCCN(CCO/N=C/c2ccc(-c3ccccc3OC(F)(F)F)o2)C1 (racemic)
Activity [8]: 84% | Activity [9]: Below limit of detection

O=C(O)C1CCCN(CCO/N=C/c2cccc(-c3ccccc3)c2)C1 (racemic)
Activity [8]: 87% | Activity [9]: 20%

O=C(O)C1CCCN(CCO/N=C/c2ccccc2-c2c(F)cccc2F)C1 (racemic)
Activity [8]: 39% | Activity [9]: 17%

O=C(O)C1CCCN(CCO/N=C/c2ccccc2-c2cc(F)ccc2F)C1 (racemic)
Activity [8]: 71% | Activity [9]: 17%

O=C(O)C1CCCN(CCO/N=C/c2ccccc2-c2ccc(Cl)cc2)C1 (racemic)
Activity [8]: Below limit of detection | Activity [9]: 38%

O=C(O)C1CCCN(CCO/N=C/c2ccccc2-c2ccc(Cl)cc2F)C1 (racemic)
Activity [8]: 24% | Activity [9]: 17%

O=C(O)C1CCCN(CCO/N=C/c2ccccc2-c2ccc(F)cc2)C1 (racemic)
Activity [8]: Below limit of detection | Activity [9]: 38%

O=C(O)C1CCCN(CCO/N=C/c2ccccc2-c2ccc3ccccc3c2)C1 (racemic)
Activity [8]: 89% | Activity [9]: Below limit of detection

O=C(O)C1CCCN(CCO/N=C/c2ccccc2-c2cccc(Cl)c2)C1 (racemic)
Activity [8]: Below limit of detection | Activity [9]: 38%

O=C(O)C1CCCN(CCO/N=C/c2ccccc2-c2cccc(F)c2)C1 (racemic)
Activity [8]: Below limit of detection | Activity [9]: 38%

O=C(O)C1CCCN(CCO/N=C/c2ccccc2-c2cccc(F)c2F)C1 (racemic)
Activity [8]: 39% | Activity [9]: 17%

O=C(O)C1CCCN(CCO/N=C/c2ccccc2-c2ccccc2)C1 (racemic)
Activity [8]: 47% | Activity [9]: 20%

O=C(O)C1CCCN(CCO/N=C/c2ccccc2-c2ccccc2Cl)C1 (racemic)
Activity [8]: 26% | Activity [9]: Below limit of detection

O=C(O)C1CCCN(CCO/N=C/c2ccccc2-c2ccccc2F)C1 (racemic)
Activity [8]: 25% | Activity [9]: Below limit of detection

O=C(O)C1CCCN(CCO/N=C/c2ccccc2-c2cccs2)C1 (racemic)
Activity [8]: 7% | Activity [9]: 48%

O=C(O)C1CCCN(CCO/N=C/c2ccccc2-n2cccn2)C1 (racemic)
Activity [8]: 37%

O=C(O)C1CCCN(CCO/N=C/c2cccn2-c2ccc(C(F)(F)F)cc2)C1 (racemic)
Activity [8]: 91% | Activity [9]: Below limit of detection

O=C(O)C1CCCN(CCO/N=C/c2cccnc2-c2ccc(Cl)cc2Cl)C1 (racemic)
Activity [8]: 31% | Activity [9]: Below limit of detection

O=C(O)C1CCCN(CCO/N=C/c2sccc2-c2ccc(F)cc2Cl)C1 (racemic)
Activity [8]: 24% | Activity [9]: Below limit of detection

Cc1ccsc1C(=CCCN1CCC[C@@H](C(=O)O)C1)c1sccc1C [TIAGABINE]
Ki [3]: 55 nM
